Assays:
Assay type in all cases: in vivo
[1] = system: Digitaria sanguinalis; test: Indoor herbicide activity determination, Seed Treatment; pre-emergence (soil spray); conditions: read-out: Herbicidal activities (inhibition rate) Digitaria sanguinalis; for inhibition at 120 g/ha: 120 g a.i./ha
Method in brief: (§1)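 Herbicide was applied to soil before weed emergence, 24 h after sowing, by tower spraying. Plants grew at constant temperature with illumination, and fresh weight compared with untreated pots gave % inhibition after 21 days.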

[2] = system: Eleusine indica; test: as above; conditions: Dosage 240 g a.i./ha
Method in brief: as §1

[3] = system: Lolium multiflorum; test: as above; conditions: Dosage 240 g a.i./ha
Method in brief: as §1

[4] = system: Aegilops tauschii; test: as above; conditions: read-out: Herbicidal activities (inhibition rate) Aegilops tauschii; for inhibition at 120 g/ha: 120 g a.i./ha
Method in brief: as §1

[5] = system: Alopecurus japonicus; test: as above; conditions: Dosage 240 g a.i./ha
Method in brief: as §1

[6] = system: Alopecurus myosuroides; test: as above; conditions: Dosage 240 g a.i./ha
Method in brief: as §1

[7] = system: Leptochloa chinensis; test: as above; conditions: Dosage 240 g a.i./ha
Method in brief: as §1

[8] = system: Cyperus iria; test: as above; conditions: read-out: Herbicidal activities (inhibition rate) Cyperus iria; for inhibition at 120 g/ha: 120 g a.i./ha
Method in brief: as §1

[9] = system: Eclipta prostrata; test: as above; conditions: read-out: Herbicidal activities (inhibition rate) Eclipta prostrata; for inhibition at 120 g/ha: 120 g a.i./ha
Method in brief: as §1

[10] = system: Digitaria sanguinalis; test: Indoor herbicide activity determination, post-emergence (stem and leaf spray at 2-4 leaf stage); conditions: 504 h, determined 21 days later, read-out: Inhibition rate of fresh weight, Digitaria sanguinalis; for inhibition at 60 g/ha: 60 g a.i./ha
Method in brief: (§2)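 Potted weeds in sandy nutrient soil (pH 6.1, 1% organic matter) were grown in a constant-temperature illuminated room to the 2-4 leaf stage, then given a stem-and-leaf spray. Plants went back to the culture room once the spray had dried in shade. At 21 days, fresh weight inhibition % was calculated relative to untreated control plants.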

[11] = system: Cyperus iria; test: as above; conditions: 504 h, determined 21 days later, read-out: Inhibition rate of fresh weight, Cyperus iria; for inhibition at 60 g/ha: 60 g a.i./ha
Method in brief: as §2

[12] = system: Eclipta prostrata; test: as above; conditions: 504 h, determined 21 days later, read-out: Inhibition rate of fresh weight, Eclipta prostrata; for inhibition at 60 g/ha: 60 g a.i./ha
Method in brief: as §2

Q: Which inhibition at 120 g/ha [1] does the source give for `O=C(N[C@H]1C[C@@H](C(=O)O)C1)C1(C(F)(F)F)CC(c2cc(F)cc(F)c2)=NO1` (mixture of isomers) [I-206] here?
A: 80 to 100%

Q: What about the “Herbicidal activities, Eleusine indica (inhibition rate class)” value [2] of the same compound?
A: A (A indicates that the inhibition rate was greater than or equal to 80% to 100%)

Q: And the “Herbicidal activities, Lolium multiflorum (inhibition rate class)” value [3]?
A: A (A indicates that the inhibition rate was greater than or equal to 80% to 100%)

Q: What about the inhibition at 120 g/ha [4] of the same compound?
A: 80 to 100%

Q: What about the “Herbicidal activities, Alopecurus japonicus (inhibition rate class)” value [5] of the same compound?
A: A (A indicates that the inhibition rate was greater than or equal to 80% to 100%)

Q: What about the “Herbicidal activities, Alopecurus myosuroides (inhibition rate class)” value [6] of the same compound?
A: A (A indicates that the inhibition rate was greater than or equal to 80% to 100%)

Q: And the “Herbicidal activities, Leptochloa chinensis (inhibition rate class)” value [7]?
A: A (A indicates that the inhibition rate was greater than or equal to 80% to 100%)

Q: What about the inhibition at 120 g/ha [8] of the same compound?
A: 80 to 100%

Q: What about the inhibition at 120 g/ha [9] of the same compound?
A: 60 to 80%

Q: What about the inhibition at 60 g/ha [10] of the same compound?
A: 80 to 100%

Q: What about the inhibition at 60 g/ha [11] of the same compound?
A: 80 to 100%

Q: And the inhibition at 60 g/ha [12]?
A: 80 to 100%

Q: What does the source list for `COC(=O)[C@H]1C[C@@H](NC(=O)C2(C(F)(F)F)CC(c3cc(F)cc(F)c3)=NO2)C1` (mixture of isomers) [I-208]?
A: inhibition at 120 g/ha [1]: 80 to 100%; Herbicidal activities, Eleusine indica (inhibition rate class) [2]: A (A indicates that the inhibition rate was greater than or equal to 80% to 100%); Herbicidal activities, Lolium multiflorum (inhibition rate class) [3]: A (A indicates that the inhibition rate was greater than or equal to 80% to 100%); inhibition at 120 g/ha [4]: 80 to 100%; Herbicidal activities, Alopecurus japonicus (inhibition rate class) [5]: A (A indicates that the inhibition rate was greater than or equal to 80% to 100%); Herbicidal activities, Alopecurus myosuroides (inhibition rate class) [6]: A (A indicates that the inhibition rate was greater than or equal to 80% to 100%); Herbicidal activities, Leptochloa chinensis (inhibition rate class) [7]: A (A indicates that the inhibition rate was greater than or equal to 80% to 100%); inhibition at 120 g/ha [8]: 80 to 100%; inhibition at 120 g/ha [9]: 80 to 100%; inhibition at 60 g/ha [10]: 80 to 100%; inhibition at 60 g/ha [11]: 80 to 100%; inhibition at 60 g/ha [12]: 80 to 100%

Q: `C=CC1(C(=O)NC2COC(C(=O)OC)C2)CC(c2cc(F)cc(F)c2)=NO1` (stereo not shown) [icafolin-methyl, reference compound] was tested. Which inhibition at 60 g/ha ([1]; 60 g a.i./ha) did it give?
A: 20 to 40%

Q: What about the inhibition at 60 g/ha ([4]; 60 g a.i./ha) of the same compound?
A: 40 to 60%

Q: And the inhibition at 60 g/ha ([8]; 60 g a.i./ha)?
A: 20 to 40%

Q: And the inhibition at 60 g/ha ([9]; 60 g a.i./ha)?
A: 40 to 60%

Q: What about the inhibition at 30 g/ha ([10]; 30 g a.i./ha) of the same compound?
A: 40 to 60%

Q: What about the inhibition at 30 g/ha ([11]; 30 g a.i./ha) of the same compound?
A: 40 to 60%

Q: And the inhibition at 30 g/ha ([12]; 30 g a.i./ha)?
A: 40 to 60%

— EP4722201A1, “3-PHENYLISOXAZOLINE-5-CARBOXAMIDE COMPOUND, AND PREPARATION METHOD THEREFOR, HERBICIDAL COMPOSITION THEREOF AND USE THEREOF” (Jiangsu Flag Chemical Industry Co., Ltd, priority 2023, dated 2024)
